The text below walks through data of the OligoGym collection.

Series [1] has as its target MALAT1. The settings on record: ASO, A431, 0.005 µM.
Series [2] has as its target IRF4. As to conditions: ASO.

Several values for one entry are separate records, joined by “and”; a condition that tells them apart may be missing. Equal values may be shown once. After the bases stand the sugars from the 5' end (letter, count) and the backbone: PS all phosphorothioate, else s phosphorothioate and o phosphodiester by linkage. Methylation of C is not given here. e = 2'-O-(2-methoxyethyl) (MOE); k = constrained ethyl (cEt); d = 2'-deoxy (DNA)

As to CATATTGCCGACCTCA (sugars k3 d10 k3, PS), in series [1], the target mRNA inhibition is 43%.

As for GTGGCAAAATGGCGGA (sugars k3 d10 k3, PS), the target mRNA inhibition in series [1] was 21%.

Take TGTTTAAGTCACCTTC (sugars k3 d10 k3, PS): in series [1], the target mRNA inhibition is 74% and 63%.

Consider CACCAATCCCAACCGT (sugars k3 d10 k3, PS), for which, in series [1], the target mRNA inhibition was 5%.

As to AGAACTAGCACCTGCA (sugars k3 d10 k3, PS), the target mRNA inhibition in series [1] was 15%.

As for CTATCTTCACCACGAA (sugars k3 d10 k3, PS), the target mRNA inhibition in series [1] turned out to be 40%.

Turning to TCTAATCACTGTCAAT (sugars k3 d10 k3, PS), the target mRNA inhibition in series [1] was 32%.

Regarding TTCTTCGGTTAAAAAT (sugars k3 d10 k3, PS), the target mRNA inhibition in series [1] came to 2%.

For TTAACAATTTGCAGGC (sugars k3 d10 k3, PS), in series [1], the target mRNA inhibition is 66% and 79%.

Regarding AAATTTTTCTACCGTT (sugars k3 d10 k3, PS), the target mRNA inhibition in series [1] is -3%.

In the case of TAGTGGTTCCCAATCC (sugars k3 d10 k3, PS), in series [1], the target mRNA inhibition was 14%.

Regarding ATCAGGTGAGGCTGAC (sugars k3 d10 k3, PS), in series [1], the target mRNA inhibition came to 23%.

With TCCGCTAAGATGCTAG (sugars k3 d10 k3, PS), in series [1], the target mRNA inhibition turned out to be 15%.

Consider CCCATAATTGTAGTTA (sugars k3 d10 k3, PS), for which the target mRNA inhibition in series [1] came to 45%.

As for CTTGAAACCGATTATG (sugars k3 d10 k3, PS), the target mRNA inhibition in series [1] stood at 38%.

As to GGTTAAGCACTTTTAA (sugars k3 d10 k3, PS), the target mRNA inhibition in series [1] worked out at 38%.

As for AGCTACTTAGCTGTGG (sugars k3 d10 k3, PS), in series [1], the target mRNA inhibition was determined as 34%.

As to TAAAAAGGCTCGATGG (sugars k3 d10 k3, PS), the target mRNA inhibition in series [1] came to 39%.

As for AAGGATCCAAGCTACT (sugars k3 d10 k3, PS), the target mRNA inhibition in series [1] turned out to be 8%.

Take CTGAACCGGAGCAGGA (sugars k3 d10 k3, PS): the target mRNA inhibition in series [1] is -13%.

Consider TTAGTAACCTATTGAC (sugars k3 d10 k3, PS), for which the target mRNA inhibition in series [1] was 34%.

Take TAAACCTGTGGTGGTC (sugars k3 d10 k3, PS): in series [1], the target mRNA inhibition is 30%.

For the sequence TACCTTGAAACCGATT (sugars k3 d10 k3, PS), the target mRNA inhibition in series [1] was 36%.

As for CATTTGGCCTACTCAA (sugars k3 d10 k3, PS), the target mRNA inhibition in series [1] came to 34%.

As to CTGGAAGCTCCTTCTA (sugars k3 d10 k3, PS), in series [1], the target mRNA inhibition is 25%.

For the sequence TCACCAAGGAGCTGTT (sugars k3 d10 k3, PS), the target mRNA inhibition in series [1] came out at 12%.

As to GAGCAGCACGGGCTGT (sugars k3 d10 k3, PS), the target mRNA inhibition in series [1] is 14%.

On to GTCAATAGTGTAAAAC (sugars k3 d10 k3, PS), for which, in series [1], the target mRNA inhibition was 33%.

For the sequence CAGCCTATAAGGACAG (sugars k3 d10 k3, PS), in series [1], the target mRNA inhibition was found to be 22%.

For the sequence CAAATTAATGCACTGG (sugars k3 d10 k3, PS), the target mRNA inhibition in series [1] was 15%.

On to AGACGGAGAACAACTC (sugars k3 d10 k3, PS), for which the target mRNA inhibition in series [1] is -14%.

On to AAGCGAGTTCAAGTGG (sugars k3 d10 k3, PS), for which the target mRNA inhibition in series [1] was found to be 15%.

Take ACAAACTGCTTACAGA (sugars k3 d10 k3, PS): in series [1], the target mRNA inhibition amounted to 17%.

For ACGAAACTCCCCCATT (sugars k3 d10 k3, PS), the target mRNA inhibition in series [1] turned out to be 36%.

Turning to ACTCCAAGAACTAGCA (sugars k3 d10 k3, PS), in series [1], the target mRNA inhibition was determined as 11%.

AACCGTAACAGGCCAC (sugars k3 d10 k3, PS): the target mRNA inhibition in series [1] stood at 50%.

On to TATTCCCCAATGGAGG (sugars k3 d10 k3, PS), for which the target mRNA inhibition in series [1] was found to be 17%.

On to TTAACTTCCCCCAGCT (sugars k3 d10 k3, PS), for which, in series [1], the target mRNA inhibition stood at 0%.

With ATCCTACCACTCCCAA (sugars k3 d10 k3, PS), the target mRNA inhibition in series [1] was found to be 34%.

Regarding TTTCATCCTACCACTC (sugars k3 d10 k3, PS), the target mRNA inhibition in series [1] turned out to be 27%.

On to ATGGATCATGCCCACA (sugars k3 d10 k3, PS), for which the target mRNA inhibition in series [1] came to 12%.

In the case of GGATCCAAGCTACTGG (sugars k3 d10 k3, PS), the target mRNA inhibition in series [1] turned out to be 18%.

Consider CATAACTGATCTGACT (sugars k3 d10 k3, PS), for which the target mRNA inhibition in series [1] was -5%.

For the sequence GCTACTGGCTGCATCG (sugars k3 d10 k3, PS), the target mRNA inhibition in series [1] is 43%.

Take ACTCTAAGATTGTAAG (sugars k3 d10 k3, PS): the target mRNA inhibition in series [1] is 25%.

TTCAAACTAAGCTACT (sugars k3 d10 k3, PS): the target mRNA inhibition in series [1] turned out to be 31%.

For the sequence GCCTCAATCCCACACC (sugars k3 d10 k3, PS), in series [1], the target mRNA inhibition worked out at 2%.

CTGCAGATGCAAGTTA (sugars k3 d10 k3, PS): the target mRNA inhibition in series [1] stood at 49%.

As to CAAGGCAAATCGCCAT (sugars k3 d10 k3, PS), in series [1], the target mRNA inhibition was 42%.

In the case of AATATCTTAGTAACCT (sugars k3 d10 k3, PS), the target mRNA inhibition in series [1] is 19%.

Take AGGCAAATCGCCATGG (sugars k3 d10 k3, PS): in series [1], the target mRNA inhibition is 5%.

For the sequence TTGCACTCGCTCCTTC (sugars k3 d10 k3, PS), in series [1], the target mRNA inhibition came out at 33%.

Consider TTACAGTTCTTGAACA (sugars k3 d10 k3, PS), for which the target mRNA inhibition in series [1] was 25%.

For GACCTGAAGTCAAGAC (sugars k3 d10 k3, PS), in series [1], the target mRNA inhibition was -1%.

AATTAATGCTAGTCCT (sugars k3 d10 k3, PS): in series [1], the target mRNA inhibition is 16%.

For the sequence GAAACCTACAACACCC (sugars k3 d10 k3, PS), the target mRNA inhibition in series [1] was determined as 20%.

In the case of CAAAGATATTGTGCTG (sugars k3 d10 k3, PS), in series [1], the target mRNA inhibition is -10%.

With TCCTCAAGCTCCGCCT (sugars k3 d10 k3, PS), the target mRNA inhibition in series [1] turned out to be 23%.

Turning to GTAAGAATTAAGACCA (sugars k3 d10 k3, PS), in series [1], the target mRNA inhibition amounted to 37%.

As for AGTAGGTATAGTTTAC (sugars k3 d10 k3, PS), the target mRNA inhibition in series [1] came to 10%.

In the case of AGTCCTAGCTTCATCA (sugars k3 d10 k3, PS), the target mRNA inhibition in series [1] was 27%.

As for AGAGTAACTACCAGCC (sugars k3 d10 k3, PS), the target mRNA inhibition in series [1] is 55% and 76%.

Regarding AGGATCCAAGCTACTG (sugars k3 d10 k3, PS), the target mRNA inhibition in series [1] is -13%.

As to CCCCCATTATATTAGA (sugars k3 d10 k3, PS), in series [1], the target mRNA inhibition turned out to be 28%.

Turning to CCTTCCCTATATAAGG (sugars k3 d10 k3, PS), the target mRNA inhibition in series [1] is -41%.

As to ATTAGTAGTCAAAGCA (sugars k3 d10 k3, PS), in series [1], the target mRNA inhibition was found to be 20%.

As for GAAACCGATTATGGAT (sugars k3 d10 k3, PS), in series [1], the target mRNA inhibition amounted to 34%.

Consider GACGGTTGAGAAGTGG (sugars k3 d10 k3, PS), for which the target mRNA inhibition in series [1] was 25%.

GCTTAAGAGGGCAGGA (sugars k3 d10 k3, PS): the target mRNA inhibition in series [1] was -7%.

Consider GTTAAGAGAAGCCCAG (sugars k3 d10 k3, PS), for which the target mRNA inhibition in series [1] came out at 20%.

As for AGAAACCTACAACACC (sugars k3 d10 k3, PS), the target mRNA inhibition in series [1] is -6%.

TACACCTTGAGTCATT (sugars k3 d10 k3, PS): the target mRNA inhibition in series [1] was found to be 38%.

Take GTCCCATAACTGATCT (sugars k3 d10 k3, PS): the target mRNA inhibition in series [1] was 35%.

With GTGCCTGGAATTATTA (sugars k3 d10 k3, PS), in series [1], the target mRNA inhibition worked out at 39%.

AAATCGCACTGGCTCC (sugars k3 d10 k3, PS): in series [1], the target mRNA inhibition is 6%.

On to ATCAAGTCAAGCTCCT (sugars k3 d10 k3, PS), for which the target mRNA inhibition in series [1] is 11%.

On to GTCTGATTATCCTGAT (sugars k3 d10 k3, PS), for which, in series [1], the target mRNA inhibition was found to be 33%.

In the case of CAACATTTGGCCTACT (sugars k3 d10 k3, PS), the target mRNA inhibition in series [1] amounted to 17%.

For TTACTCTAATCACTGT (sugars k3 d10 k3, PS), in series [1], the target mRNA inhibition amounted to 33%.

For the sequence CTGCAAGGTCTCATAC (sugars k3 d10 k3, PS), the target mRNA inhibition in series [1] came out at 24%.

Take AATCACCTTCGGTTTA (sugars k3 d10 k3, PS): the target mRNA inhibition in series [1] is -1%.

TGCTGTTACCTCCCAC (sugars k3 d10 k3, PS): the target mRNA inhibition in series [1] amounted to 14%.

On to TGACACTTCTCTTGAC (sugars k3 d10 k3, PS), for which the target mRNA inhibition in series [1] is 30%.

As for AGCTTGACAAGCAATT (sugars k3 d10 k3, PS), the target mRNA inhibition in series [1] was found to be 16%.

With GTAAGCCCCACCCCCT (sugars k3 d10 k3, PS), the target mRNA inhibition in series [1] was -35%.

As to CACACTGGCATGCTGG (sugars k3 d10 k3, PS), the target mRNA inhibition in series [1] worked out at 9%.

Regarding AATCACAAATACGACT (sugars k3 d10 k3, PS), the target mRNA inhibition in series [1] turned out to be 23%.

On to TGCAAAACCAGTACAG (sugars k3 d10 k3, PS), for which the target mRNA inhibition in series [2] (SK-MEL-28, 4 µM) amounted to 28%.

As for ACACTTTTAGAGAGGA (sugars k3 d10 k3, PS), the target mRNA inhibition in series [2] (MM.1R, 0.0625 µM) was 32%; in series [2] (MM.1R, 0.222 µM), 25% and 41%; in series [2] (MM.1R, 0.25 µM) it was 41%; in series [2] (MM.1R, 2 µM) it was 72% and 89%; in series [2] (MM.1R, 4 µM), 74%; in series [2] (SK-MEL-28, 4 µM) it was 63%.

On to TTCCATTGGAGGAGGG (sugars k3 d10 k3, PS), for which, in series [2] (SK-MEL-28, 4 µM), the target mRNA inhibition amounted to 28%.

In the case of ACAAGTGCTAGGATTC (sugars k3 d10 k3, PS), the target mRNA inhibition in series [2] (SK-MEL-28, 4 µM) amounted to 67%.

ATTGCCTGTTAAGTCC (sugars k3 d10 k3, PS): the target mRNA inhibition in series [2] (SK-MEL-28, 4 µM) was found to be 73%.

Take CCTGTCACCTGGCAAC (sugars k3 d10 k3, PS): the target mRNA inhibition in series [2] (SK-MEL-28, 4 µM) is 41%.

As to GACCAATTTATGCCAT (sugars k3 d10 k3, PS), the target mRNA inhibition in series [2] (SK-MEL-28, 4 µM) was 38%.

As for “GAAGTTTACACTGGAT (sugars kkkdddddddddkeke, PS)”, the target mRNA inhibition in series [2] (MM.1R, 1 µM) was 49%.
